Legend:
[1] = test system: immune cell recruitment to the popliteal lymph node; assay: TNF-α induced inflammation model, flow cytometry of pLN; format: in vivo, mouse; conditions: mice, flow cytometry 5 h post-injection of rmTNF-α, vs control group
[2] = test system: RPMI-8226; assay: NCI-60 one-dose screen; format: cell-based, human; conditions: 10 µM, 48 h, Leukemia
Protocol: Adapted from NCI-60 Screening Methodology, one-dose screen:20 Briefly, human tumor cell lines, grown in RPMI 1640 containing 5% FBS and 2 mM L-glutamine, were plated in 96 well plates at densities ranging from 5,000 to 40,000 cells/well 24 h prior to addition of test compounds (here 10 μM 2). 400x solutions of test compounds were prepared in DMSO, then diluted to 2x in medium supplemented with 50 μg/mL gentamicin. 100 μl of this 2x stock was added to cells previously plated in 100 μl medium, resulting in the desired final compound concentration. Cells were fixed in situ with cold TCA: untreated cells at the time of compound addition (Tz) and treated cells 48 h after addition of compound (Ti). Cells were washed, then su f rh damine s uti n μ at . w/v in acetic acid was added to each well and incubated for 10 minutes at room temperature. After washing again, the plates were air dried and bound stain solubilized with 10 mM Trizma base before absorbance was […]
Percentage growth (%Growth) was calculated as follows:
when Ti ≥ Tz, %Growth = Ti − Tz x 100 where Ti = absorbance from compound treated cells, Tz = absorbance from untreated cells at time zero, and C = absorbance from control (DMSO) treated cells. […]

[3] = target: CBP (Homo sapiens, UniProt Q92793); assay: commercial Bromoscan assay; format: binding
Protocol: was used as the calibration curve. To obtain saturated solutions of the compounds of interest, in duplicates 4.4 µL of a 10 or 5 mM stock in DMSO was added to 436 µL Buffer (PBS, pH = 7.4), to give a final concentration of 100 or 50 µM. Samples were incubated on a shaker (500 rpm) at 37°C for 90 minutes and then filtered (Millex-GV 13 mm, 0.22 µm). 304 µL of the filtrate was mixed with 76 µL of acetonitrile on a dilution plate, from which 350 µL was transferred to a UV-plate and UV-absorption was read using a SpectraMax M5 (Molecular devices). The absorbance was blank-corrected and compared to the calibration curve to […]
solubility. […]
lower solubility (2) compounds respectively in a 12.5 w/v% CAPTISOL® solution in water. […] Based on the known density of 12.5 % CAPTISOL® solution (d = 1.05755 g/mL at 25 °C), the precise weight of the resulting solution and so the required amount of water by weight was calculated. […] In duplicates, aliquots of the filtrates were taken and diluted with blank 12.5 % CAPTISOL® water solution in either a 1:14 (higher sol. compounds) or 1:7 (lower sol. compounds) ratio, 350 µL was transferred to a 96-Well Plate (Greiner, UV-star) then UV absorption (240-400 nm, 10 nm steps) was measured using a SpectraMax M5 (Molecular devices). […] The calculated concentrations are available in Table S4. […]
The bromodomain concentration in the eluates was measured by qPCR. […]

[4] = test system: TNF-α-induced IL-8 secretion from THP-1 cells; assay: cytokine protein measurement (LEGENDPlex); format: cell-based, human; conditions: 10 ng/mL TNF-α, 1 μM compound
Protocol: For cytokine expression determination, 5x10^5 THP-1 cells were plated on 12 well plates the day prior to treatment with 10 ng/mL recombinant human TNF -α (aa 77-233) protein (R&D systems, 10291 -TA) and compounds at a final concentration of 0.1 % DMSO. In all cases, total […]
Cytokine protein measurements
THP-1 cells were plated and treated as for the quantitative RT -PCR, then the cell culture medium was harvested by pelleting the cells (300g, 3min) and taking the supernatant .
Cytokine protein concentrations were determined using the LEGENDPlexTM Human Inflammation Panel 1 (BioLegend) assay with 25 µL of culture medium following the manufacturer’s instructi ns. amp es were ana zed f w c t metr n an rtessa Biosciences), and data was analyzed using LEGENDPlex software (BioLegend).

Sequence of CBP (Q92793 1085-1192 limits assumed): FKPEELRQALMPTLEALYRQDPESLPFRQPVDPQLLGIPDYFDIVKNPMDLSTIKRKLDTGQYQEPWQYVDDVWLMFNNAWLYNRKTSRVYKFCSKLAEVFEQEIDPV

## Cc1cc2c(NC(=O)c3cc(NC(=O)c4ccco4)cc(-c4ccn(C)n4)c3)cccc2nn1 [Compound 2]
[1]
  recruitment of lymphocytes (T and B cells), dendritic cells and neutrophils to the pLN: significantly inhibited the recruitment of lymphocytes
[2]
  %Growth: 32%
[3]
  Kd: 9 nM
[4]
  TNF-α-induced IL-8 protein secretion: significantly reducing its TNF-α-induced secretion
